EC50, Kd and inhibition data for three compounds are collected here from patent US10730860B2, “Diaminopyrimidine benzenesulfone derivatives and uses thereof” (Dana-Farber Cancer Institute, Inc., priority 2014, dated 2020).

The subject of assay [1] is 797 cells. The assay is described as follows: Cellular assay, cell viability (ATPlite), BRD4 dependent cell line 797. The assay is classed as cell-based. The note with it: 72 h; BRD4 dependent cell line 797, three days incubation. Here is the method:
(§1) The compounds of the invention are also evaluated in the BRD4 dependant cell line for the cellular activity to generate cellular IC50 values.
(§2) Cells (e.g., BRD4 dependant cells) were counted and adjusted to 60,000 cells/mL. Using a Biotek EL406, 50 μL of the cells in media were distributed into 384 well white plates from Thermo. Immediately after plating, compounds of the invention in DMSO were distributed to plates. For large plate sets, cells were returned to a 37° C. incubator while not in use. The compounds were added to plates using a 100 nL 384 well pin transfer manifold on a Janus workstation. Stocks were arrayed in 10 point quadruplicate dose response in DMSO stock in 384-well Greiner compound plates. After addition of the compounds, plates were incubated for three days in a 37° C. incubator. Cell viability was read out using ATPlite from Perkin Elmer. Plates were removed from the incubator and brought to room temperature prior to use. Lyophilized powder was resuspended in lysis buffer and diluted 1:2 with DI water. 25 μL of this solution was added to each well using the Biotek liquid handler. Plates were sealed with adherent aluminum seals prior to vortexing and spinning down at 1000 g for 1 minute. Plates were incubated for 15 minutes at room temperature before signal was read on an Envision Plate Reader.

The test system of assay [2] is HL60 cells. The assay is described as follows: Cellular assay, cell viability (ATPlite), BRD4 dependent cell line HL60. It counts as cell-based. The note with it: Homo sapiens, HL-60, 72 h; BRD4 dependent cell line HL60, three days incubation. Here is the method:
as §1, §2
In general terms: In ATP-based viability assays light output follows the ATP content of the culture.

Assay [3] has as its target T1, BRD4.1 (Homo sapiens (Human), UniProt O60885). In words: Isothermal Titration Calorimetery (ITC). The assay is classed as binding. The note with it: BRD4.1, 25° C. Here is the method: Isothermal Titration Calorimetery
ITC was performed using a ITC200 microcalorimeter from GE™ (Northampton, Mass.). All experiments were carried out at 25° C. while stirring at 1000 rpm, in ITC buffer (50 mM HEPES pH 7.4 at 25° C., 150 mM NaCl). The microsyringe was loaded with a solution of the protein sample (225 μM, in ITC buffer). […] All titrations were conducted using an initial injection of 0.2 μl, followed by 19 identical injections of 2 μl with a duration of 5 sec (per injection) and a spacing of 90 sec between injections. The heat of dilution was determined by independent titrations (protein into buffer) and was subtracted from the experimental data. […] The collected data were implicated in the MicroCal™ Origin software supplied with the instrument to yield enthalpies of binding (ΔH) and binding constants (KB) as previously described by Wiseman and coworkers. Thermodynamic parameters were calculated (ΔG=ΔH−TΔS=−RT ln KB, where ΔG, ΔH and ΔS are the changes in free energy, enthalpy and entropy of binding respectively). A single binding site model was employed.
A general note: Isothermal titration calorimetry measures the heat released or taken up as one component is titrated into another.

Assay [4] deals with T1, BRD4.1. In words: Acetyl-Histone Binding Assay (AlphaScreen). To be noted: in vitro percent inhibition of BRD4.1 at 2.5 μM compound concentration; read-out: % INHIB (at 2.5 uM). Here is the method: Assays were performed with minor modifications from the manufacturer's protocol (PerkinElmer, USA). All reagents were diluted in 50 mM HEPES, 150 mM NaCl, 0.1% w/v BSA, and 0.01% w/v Tween^□ 20 at pH 7.5 and allowed to equilibrate to room temperature prior to addition to plates. After addition of Alpha beads to master solutions, all subsequent steps were performed in low light conditions. […] Addition to wells was performed with either a multichannel pipet (for optimization experiments) or a Biotek EL406 liquid handler. After a 1000-rpm spin-down for 1 minute, 100 nL of the solutions of the compounds of the invention from stock plates were added by pin transfer using a Janus Workstation (PerkinElmer, USA). The streptavidin-coated donor beads (25 μg/ml final) were added as with previous solution in a 2×, 10 μL volume. Following this addition, the plates were sealed with foil to block light exposure and to prevent evaporation. The plates were spun down again at 1000 rpm for 1 minute. Next, the plates were incubated in the room with the plate reader (for temperature equilibration) for 1.5 hour prior to reading the assay.

Broadly, the EC50 is the concentration giving half of the maximal effect. What is called Kd is the constant that tells how readily two partners part at equilibrium.

As to `CC(C)(C)NS(=O)(=O)c1cccc(Nc2nc(Nc3ccc(OCCN4CCCC4)cc3)ncc2N)c1`, the EC50 was 2400 nM in assay [1] and 2070 nM in assay [2]. In assay [3], this compound showed a Kd of 483 nM. With `CCN1CCN(C(=O)Cc2ccc(Nc3ncc(F)c(Nc4ccc(C(=O)Nc5ccccc5Cl)cc4)n3)cc2)CC1`, the inhibition at 2.5 µM in assay [4] amounted to 56.1%.

On to `Cc1cnc(Nc2ccc(OCCN3CCCC3)cc2)nc1Nc1cccc(S(=O)(=O)NC(C)(C)C)c1`, for which the inhibition at 2.5 µM in assay [4] was found to be 36%.
